Results from US12251385B2, “Covalent inhibitors of menin-MLL interaction for diabetes mellitus” (BIOMEA FUSION, INC., priority 2021, dated 2025).
“Also recorded” adds a separate entry of the source.

Legend:
[1] = test system: streptozotocin (STZ) induced type II diabetes in Wistar Han rats; test: Restoration of glycemic control in streptozotocin-induced rats (Example 103); assay type: in vivo, rat
Method: The present example provides the ability of Compound 10 to restore glycemic control to streptozotocin (STZ) induced type II diabetes in Wistar Han rats. Fahmy et al., 2017, World J. Pharm. Med. Res. 3(3):37-39.
Control and test compounds were stored at 4° C. and prepared weekly as needed. The vehicle for positive control pioglitazone was 0.25% carboxymethylcellulose and 1% Tween® 80 in reverse osmosis deionized water. The vehicle for Compound 10 was 10% DMSO, 10% Solutol HS 15, and 80% (10% hydroxypropyl-β-cyclodextrin in 50 mM citrate buffer at pH 3.0). The vehicle for streptozotocin pretreatment was 0.1 M sodium citrate pH 4.5.
On Day −3, twenty-four Wistar Han rats (plus eight spare Wistar Han rats) were measured for body weight and non-fasting glucose. Starting on Day −42, D12451 Research Diet was provided ad libitum throughout the study, except during designated procedures, as was water. In order to minimize the effects of stress on blood glucose and body, all animals including the spares received daily sham doses with phosphate buffered saline pH 7.2 (dose volume 5 mL/kg) via gavage beginning on Study Day −5 to Day −1. 20% Glucose in drinking water (200 g/L) was provided ad libitum for 24 hr after streptozotocin injection on Day −14 and Day −7.
On Days −14 and −7, streptozotocin was administered at 30 mg/kg/day QD intraperitoneally. Starting on Day 1, control and test compound were administered on the following schedule.
(§1) On Days −7 to −1 and on Days 1, 8, and 14 non-fasting blood glucose was measured. On Day 15, an oral glucose tolerance test was administered. The animals were weighed and the animals were placed in clean cages without food. Access to water was provided throughout the procedure. The animals were fasted for five hours and a blood glucose measurement was determined. The animals were dosed via oral gavage with 2 g/kg glucose (10 mL/kg). Blood glucose was determined via venipuncture. The second drop of blood from the animal was placed on a hand-held glucometer (Abbott Alpha Trak) at the following times relative to the glucose dose: zero (just prior to glucose dose), 15, 30, 60, 90, and 120 min. Following the final blood glucose measurement, food was returned to the cages. On Day 17, 4-hour fasting glucose was measured. Serum samples were used to measure insulin by ELISA. Analysis was performed in one to three days of each collection. On Day 17, terminal blood collection was obtained at about 8 mL per animal and measured for blood glucose.

[2] = test system: Zucker Diabetic Fatty (ZDF) rats; test: Reduction in HbA1c in ZDF rats, 28 days dosing and washout (Example 106); assay type: in vivo, rat
Method: Zucker Diabetic Fatty (ZDF) rats were dosed daily with Compound 10, liraglutide, or vehicle for twenty-eight days (n=10 per group) and monitored for an additional twenty-eight days post last dose. Fasting blood glucose, insulin, C-peptide levels, HbA1c, oral glucose tolerance test (OGTT), and body weight were monitored during and post-treatment.
ZDF Rat Model—five treatment groups 1. Vehicle; 2. Compound 10 at 40 mg/kg; 3. Compound 10 at 85 mg/kg; 4. Compound 10 at 170 mg/kg; and 5. Liraglutide at 0.2 mg/kg; n=10 per group. Group 2 dose (40 mg/kg) was increased to 200 mg/kg on Day 17 for rest of the dosing phase. Daily dosing zero to twenty-eight days days QD 4 drug wash out twenty-eight to fifty-six days. Rats were monitored for the following parameters through dosing and wash out phases—body weight, fasting blood sugar, blood insulin, C-peptide, OGTT, and HbA1C.

[3] = test system: Type 2 Diabetes Mellitus (T2DM) Zucker Diabetic Fatty Rat model; test: Glycemic control in ZDF rats, 28 days treatment plus 28 days post-treatment (Example 104); assay type: in vivo
Method: Rats were treated daily with Compound 10, liraglutide, or vehicle for twenty-eight days and monitored for an additional twenty-eight days post-treatment.

[4] = test system: Zucker Diabetic Fatty (ZDF) Rat; test: ZDF rat model, 16 days dosing and drug washout to Day 29 (Example 105); assay type: in vivo; conditions: ZDF rats
Method: (§2) ZDF rats were treated daily with Compound 10, vehicle, or pioglitazone for sixteen days and monitored for an additional two weeks post-treatment until Day 29. STZ rat models were induced through pre-treatment of animals on a high-fat diet with low doses of streptozotocin at Day −14 and Day −7 prior to starting treatment at Day Zero until Day 16. ZDF and STZ rats were monitored for fasting blood glucose levels, oral glucose tolerance test (OGTT), insulin and C-peptide levels, HOMA-IR (Homeostatic Model Assessment of Insulin Resistance), blood lipemic levels, and body weight according to the schematic for each model below. ZDF rats were analyzed for indicated readouts for fifteen days post-treatment for OGTT at Day 29, and serum insulin and C-peptide at Day 31.
ZDF Rat Model—three treatment groups 1. Vehicle; 2. Compound 10 at 175 mg/kg; and 3. Pioglitazone at 30 mg/kg; n=10 per group. Daily dosing zero to sixteen days QD 4 drug wash out at sixteen to twenty-nine days. Rats were monitored for the following parameters through dosing and wash out phases—body weight, fasting blood sugar, blood insulin, C-peptide, and OGTT.

[5] = test system: Zucker diabetic fatty rats (ZDF rats, genotype ZDF-Lepr^fa/Crl); test: Restoration of glycemic control in diabetic fatty rats, dosing Days 1-16 (Example 102); assay type: in vivo, rat
Method: The present examples provides the ability of Compound 10 to restore glycemic control to diabetic Zucker diabetic fatty rats (ZDF rats, genotype ZDF-Lepr^fa/Crl; Charles River). Cornicelli et al., 2005, Charles River.
Control and test compounds were stored at 4° C. and prepared weekly as needed. The vehicle for positive control pioglitazone was 0.25% carboxymethylcellulose and 1% Tween® 80 in reverse osmosis deionized water. The vehicle for Compound 10 was 10% DMSO, 10% Solutol HS 15, and 80% (10% hydroxypropyl-β-cyclodextrin in 50 mM citrate buffer at pH 3.0).
On Day −3, twenty-four ZDF rats (plus eight spare ZDF rats) were measured for body weight and non-fasting glucose. LabDiet 5008 was provided ad libitum throughout the study, except during designated procedures, as was water. In order to minimize the effects of stress on blood glucose and body, all animals including the spares received daily sham doses with phosphate buffered saline pH 7.2 (dose volume 5 mL/kg) via gavage beginning on Study Day −5 to Day −1.
Vehicle, control, and test compound were administered via oral gavage according to the following design on Days 1-16.
as §1, with “−3,” for “−7 to −1 and on Days”, “On Day 15, an oral glucose tolerance test was administered.” left out, “weighed,” for “weighed”, “tail snip.” for “venipuncture.”, “collections. […]” for “collection. On Day 17, terminal blood collection was obtained at about 8 mL per animal and measured for blood glucose.”

[6] = test system: Streptozotocin-induced Rat (STZ); test: STZ rat model, 16 days dosing (Example 105); assay type: in vivo; conditions: STZ rats
Method: as §2
STZ Rat Model—three treatment groups 1. Vehicle; 2. Compound 10 at 175 mg/kg; and 3. Pioglitazone at 30 mg/kg; n=10 per group. Fourteen-day STZ pretreatment prior to dosing. Daily dosing zero to sixteen days QD. Rats were monitored for the following parameters through dosing—body weight, blood glucose levels, and OGTT.

[7] = twenty-eight days of treatment, FIG. 18
[8] = up to the last day of dosing, lasting two weeks post last dose
[9] = 175 mg/kg QD, after two weeks of treatment
[10] = 175 mg/kg QD, after two weeks of treatment, p<0.05

C=CC(=O)N[C@@H]1CCCN(Cc2ccnc(C(=O)Nc3ccc(-c4cc5c(N6CCOCC6)ncnc5[nH]4)cc3)c2)C1 [Compound 10]
non-fasting glucose ([1]; STZ-induced Wistar Han rats, 175 mg/kg/day PO QD, compared to vehicle and control, FIG. 8): sharp reduction
insulin, 4-hour fasting state (FIG. 10B) ([1]; STZ-induced rats, Day 17): maintenance or reduction
insulin, non-fasting state (FIG. 10A) ([1]; STZ-induced rats, Days 1, 8 and 14): maintenance or reduction
insulin, non-fasting state (FIG. 9) ([1]; STZ-induced rats, Days 1 and 8): significant reduction
oral glucose tolerance test (blood glucose, AUC) ([1]; STZ-induced rats, after fifteen days of treatment, significant relative to vehicle and control, FIGS. 11A-11B): significant glucose control
HbA1c, all doses tested ([2]; 4-week dosing study): significantly reduces; also recorded: significant reductions
fasting blood glucose levels, mid- and high-dose arms ([2]; 85 and 170 mg/kg QD, similar to liraglutide): reduction
HbA1c two weeks after the last dose ([2]; Day 15 post-dosing, FIG. 21): maintains a significant reduction
HbA1c absolute amount lower than the liraglutide group ([2]; Day 29): 1.8%
HbA1c absolute amount lower than the vehicle group ([2]; Day 29): 3.5%
HbA1c reduced from vehicle (relative) ([2]; Day 29): 33%
HbA1c relative reduction printed with the liraglutide comparison ([2]; Day 29, reduced from vehicle): 20%
glycemic control over four weeks of dosing ([2]; FIG. 20): durable glycemic control
fasting blood glucose, Day 29 ([2]; high-dose group, one day after treatment stopped): sustained and significant reduction
oral glucose tolerance test (OGTT) on Day 25, high-dose group ([2]; high-dose-treated group versus liraglutide): improved response versus liraglutide
oral glucose tolerance test (OGTT) on Day 25, all dose groups ([2]; in comparison to the vehicle-treated group): improved glycemic control
body weight over time [2, 7]: progressive increase
fasting blood glucose levels over time [2, 7]: progressive increase
fasting c-peptide levels [2, 8]: elevated
fasting insulin levels [2, 8]: elevated
absolute reduction in HbA1C versus vehicle ([3]; 28 days daily treatment, Day 29, FIG. 12): 3.5%
HbA1C throughout the entire study, including post-treatment ([3]; FIG. 12): remained reduced
oral glucose tolerance test (OGTT) on Day 25 ([3]; both Compound 10 dose groups, in contrast to vehicle and liraglutide): improved glycemic control
tolerability ([3]; daily treatment for twenty-eight days, throughout the study): tolerated Compound 10 well
4-hour fasting blood glucose ([3]; high-dose arm, during treatment up to Day 29): strong reduction
body weight ([4]; 175 mg/kg QD for sixteen days, 175 mg/kg): reduces body weight; also recorded: Significant reductions
blood lipemic levels (cholesterol, triglycerides) ([4]; 175 mg/kg QD for sixteen days, Day 17, p<0.01, 175 mg/kg): significantly reduces; also recorded: Significant reductions
reduction in fasting blood glucose levels [4, 9]: ~50%
reduction in non-fasting blood glucose levels [4, 9]: ~50%
HOMA-IR ([4]; 175 mg/kg QD, after two weeks of treatment, p<0.001): reduced
C-peptide levels [4, 10]: significantly reduced
serum insulin levels [4, 10]: significantly reduced
OGTT AUC reduction, Day 15 ([4]; 175 mg/kg QD, p<0.001): 54%
OGTT AUC reduction, Day 29 ([4]; drug washout, ~two weeks after the last dose, p<0.05): 40%
insulin sensitivity (HOMA-IR) ([4]; sixteen days of treatment, FIG. 16): increases insulin sensitivity
blood glucose, insulin, and C-peptide levels during drug washout ([4]; two weeks after the last dose, FIG. 14): maintains significant impact
insulin, non-fasting state ([5]; 175 mg/kg/day PO QD, Days 1, 8, 14, compared to vehicle and control, FIG. 2A): significant reduction
glucose, fasting state ([5]; 175 mg/kg/day PO QD, compared to vehicle and control, FIG. 1B): significant reduction
insulin, fasting state ([5]; 175 mg/kg/day PO QD, compared to vehicle and control, FIG. 2B): significant reduction
insulin resistance (HOMA), non-fasting state ([5]; 175 mg/kg/day PO QD, compared to vehicle and control, FIG. 3A): significant reduction
insulin resistance (HOMA), fasting state ([5]; 175 mg/kg/day PO QD, compared to vehicle and control, FIG. 3B): significant reduction
glucose, non-fasting state ([5]; Compound 10 175 mg/kg/day PO QD, compared to vehicle and control (pioglitazone), FIG. 1A): significant reduction
oral glucose tolerance test (blood glucose, AUC), Day 29 ([5]; Day 29, after fourteen days of no treatment, FIGS. 5A-5B): significant glucose control
C-peptide two weeks after therapy ([5]; FIG. 7): increasing C-peptide
oral glucose tolerance test (blood glucose, AUC) ([5]; after fifteen days of treatment, 2 g/kg glucose, FIGS. 4A-4B): significant glucose control
4-hour fasting insulin after two weeks without therapy ([5]; no therapy for two weeks, statistically superior to control, FIG. 6A): increasing insulin
4-hour fasting glucose after two weeks without therapy ([5]; no therapy for two weeks, statistically superior to control, FIG. 6B): glucose lowering
body weight [6]: Significant reductions
blood glucose levels (non-fasting) during treatment ([6]; 175 mg/kg QD, measured weekly during treatment, FIG. 15B, 175 mg/kg): strongly reduces; also recorded: reduction of glucose levels
OGTT AUC reduction, Day 15 ([6]; Compound 10 175 mg/kg, pioglitazone 30 mg/kg QD, p<0.05): 41%
blood lipemic levels ([6]; p<0.01): Significant reductions
